The nature of data set [1]: One-photon absorption and emission spectra in multilamellar lipid vesicles, water and ethanol. The class given is physicochemical. As to conditions: for Absorbance MLV: multilamellar lipid vesicles; for 1PF Abs. Max / 1PF Em. Max: one photon, soybean multi-lamellar lipid vesicles. The source says:
[…] The column indicating relative signal change for one-photon fluorescence also lists the excitation light source used and the lower bounds of the long-pass emission detected.
Absorption and emission spectra were obtained for a series of dyes with different acceptors: pyridinium (PY-1261), quinolinium (PY-212), and acridinium (PY-2240).

The subject of data set [2] is NIE-115 mouse neuroblastoma. As to the kind of experiment: Time-dependence (kinetics) of SHG and 2PF signal change after voltage-clamp step. As to conditions: for SHG Kinetics (exponential time constant): time resolution 5 ms. The format is cell-based. The source says: For full details of our non-linear imaging microscope, we refer the reader to previously published descriptions. A. C. Millard, P. J. Campagnola, W. Mohler, A. Lewis, and L. M. Loew, “Second Harmonic Imaging Microscopy,” Meth. Enzymol. 361, 47-69 (2003); Millard, A. C., L. Jin, and L. M. Loew, “Second Harmonic Generation Imaging Microscopy with a High Power Ultrafast Fiber Laser,”Commercial and Biomedical Applications of Ultrafast Lasers. 5714-5716, 92-98 (2005); A. C. Millard, L. Jin, M.-D. Wei, J. P. Wuskell, A. Lewis, and L. M. Loew, “Sensitivity of Second Harmonic Generation from Styryl Dyes to Transmembrane Potential,” Biophys. J. 86, 1169-1176 (2004). Our current microscope combines a Fluoview (Olympus) scan-head and an Axiovert (Zeiss) inverted microscope constructed for multiple imaging methodologies including wide-field, one-photon excitation fluorescence imaging, as well as SHG and 2PF imaging. Our laser sources include a Mira (Coherent) Ti:sapphire laser and a Femtopower (Fianium) fiber laser operating at 1064 nm. Millard, A. C., L. Jin, and L. M. Loew, “Second Harmonic Generation Imaging Microscopy with a High Power Ultrafast Fiber Laser,”Commercial and Biomedical Applications of Ultrafast Lasers. 5714-5716, 92-98 (2005). For excitation, we routinely use an IR-Achroplan (Zeiss) 40×, 0.8 NA water-immersion objective though for shorter wavelengths we also use an A-Plan (Zeiss) 40×, 0.65 NA air objective. Fluorescence is imaged (for linear imaging) or collected (for non-linear imaging) back through the excitation objective, while SHG is collected in the forward, transmitted light direction by a condenser, either 0.8 NA or 0.55 NA (Zeiss). For optimal collection, the numerical aperture of the condenser should be at least 1/√2 of the numerical aperture of the excitation objective (L. Moreaux, O. Sandre, S. Charpak, M. Blanchard-Desce, and J. Mertz, “Coherent Scattering in Multi-Harmonic Light Microscopy,” Biophys. J. 80, 1568-1574 (2001); L. Moreaux, O. Sandre, and J. Mertz. “Membrane Imaging by Second Harmonic Generation Microscopy,” J. Opt. Soc. Am. B. 17, 1685-1694 (2000)), though in practice a condenser of slightly lower numerical aperture will often suffice. Since the wavelength of second harmonic light is precisely half that of the excitation light, the choice of filter for SHG imaging is greatly simplified and the primary concern is the blocking of the excitation light that is also transmitted through the sample as well as fluorescence that is emitted forwards.
NIE-115 mouse neuroblastoma were cultured in DMEM with 10% fetal bovine serum and 1% antibiotic-antimycotic (Invitrogen, Carlsbad, Calif.) in a 60 mm plastic dish (353002, Becton Dickinson, Franklin Lakes, N.J.). The culture was maintained at 37° C. with 5% CO2 for a period of 48 hours prior to experimentation.
For experimentation the growth medium was replaced with 3 mL of Earle's Balanced Salt Solution (EBSS, Sigma, St. Louis, Mo.) with 20 mM HEPES (Merck Biosciences AG, Laufelfingen, Switzerland). The internal buffer, injected into the patch pipette, was a potassium aspartate (140 mM, Sigma, St. Louis, Mo.), sodium chloride (5 mM, Sigma, St. Louis, Mo.) and HEPES (10 mM) solution at a pH of 7.35. The pH was adjusted with potassium hydroxide and hydrochloric acid.
For characterizing the voltage-sensitivity of SHG and 2PF, we used a slow (˜0.1 Hz) switching protocol as previously described (A. C. Millard, P. J. Campagnola, W. Mohler, A. Lewis, and L. M. Loew, “Second Harmonic Imaging Microscopy,” Meth. Enzymol. 361, 47-69 (2003); Millard, A. C., L. Jin, and L. M. Loew, “Second Harmonic Generation Imaging Microscopy with a High Power Ultrafast Fiber Laser,” Commercial and Biomedical Applications of Ultrafast Lasers. 5714-5716, 92-98 (2005); A. C. Millard, L. Jin, M.-D. Wei, J. P. Wuskell, A. Lewis, and L. M. Loew, “Sensitivity of Second Harmonic Generation from Styryl Dyes to Transmembrane Potential,” Biophys. J. 86, 1169-1176 (2004)) with a 50 mV step. […]

The test system of data set [3] is NIE-115 mouse neuroblastoma. The data set can be described thus: SHG and 2PF voltage sensitivity, 50 mV step, slow switching protocol on patch-clamped neuroblastoma cell. The class given is cell-based. The following applies: comparator named in the sentence (PY-1266; PY-1268). An excerpt: For full details of our non-linear imaging microscope, we refer the reader to previously published descriptions. A. C. Millard, P. J. Campagnola, W. Mohler, A. Lewis, and L. M. Loew, “Second Harmonic Imaging Microscopy,” Meth. Enzymol. 361, 47-69 (2003); Millard, A. C., L. Jin, and L. M. Loew, “Second Harmonic Generation Imaging Microscopy with a High Power Ultrafast Fiber Laser,”Commercial and Biomedical Applications of Ultrafast Lasers. 5714-5716, 92-98 (2005); A. C. Millard, L. Jin, M.-D. Wei, J. P. Wuskell, A. Lewis, and L. M. Loew, “Sensitivity of Second Harmonic Generation from Styryl Dyes to Transmembrane Potential,” Biophys. J. 86, 1169-1176 (2004). Our current microscope combines a Fluoview (Olympus) scan-head and an Axiovert (Zeiss) inverted microscope constructed for multiple imaging methodologies including wide-field, one-photon excitation fluorescence imaging, as well as SHG and 2PF imaging. Our laser sources include a Mira (Coherent) Ti:sapphire laser and a Femtopower (Fianium) fiber laser operating at 1064 nm. […] Fluorescence is imaged (for linear imaging) or collected (for non-linear imaging) back through the excitation objective, while SHG is collected in the forward, transmitted light direction by a condenser, either 0.8 NA or 0.55 NA (Zeiss). […]

Consider `CCCN(CCC)c1ccc(-c2ccc(/C=C/c3cc[n+](CCC[N+](CC)(CC)CC)cc3)s2)s1` [PY-1286, Di-3-BTEPPTEA], for which, in data set [1], the Absorbance ethanol stood at 616 nm, the “Absorbance MLV” value stood at 547 nm, the “1PF Abs. Max” value is reported as 547 nm and the “1PF Em. Max” value was determined as 692 nm. The Absorbance water in data set [1] worked out at 567 nm. In data set [2], the “SHG kinetics, in words” value is given as “slower kinetic response” and the “SHG Kinetics (exponential time constant)” value stood at 27 ± 1 ms.

In the case of `CCCCN(CCCC)c1ccc(-c2ccc(/C=C/c3cc[n+](CCC[N+](CC)(CC)CC)cc3)s2)s1` [PY-1266, Di-4-BTEPPTEA], in data set [1], the Absorbance ethanol was found to be 624 nm, the “Absorbance MLV” value is 552 nm, the “1PF Abs. Max” value stood at 552 nm and the “1PF Em. Max” value came out at 694 nm. The Absorbance water in data set [1] was determined as 555 nm. In addition, in data set [2], the “SHG kinetics, in words” value is listed as “slower kinetic response” and the “SHG Kinetics (exponential time constant)” value is on record as 23 ± 2 ms.

For `CCN(CC)c1ccc(-c2ccc(/C=C/c3cc[n+](CCC[N+](CC)(CC)CC)cc3)s2)s1` [PY-1261, Di-2-BTEPPTEA], in data set [1], the Absorbance ethanol amounted to 614 nm, the “Absorbance MLV” value is 547 nm, the “1PF Abs. Max” value is recorded as 547 nm and the “1PF Em. Max” value is 686 nm. Moreover, the Absorbance water in data set [1] is 539 nm. The “SHG signal sensitivity relative to another dye” value in data set [3] is “more than five times larger”. In data set [2], the “SHG kinetics, in words” value was “instantaneous”.

The values are drawn from patent publication US8129532B2, “Amino(oligo)thiophene dyes, preparation thereof, and optical methods of use” (The University of Connecticut, priority 2007, dated 2012).
